In US20230414499A1, “SUBLINGUAL FILM DOSAGE OF RASAGILINE OR PHARMACEUTICALLY ACCEPTABLE SALT THEREOF, AND PREPARATION METHOD THEREFOR AND USE THEREOF” (priority 2020, published 2023):
Structures can show the parent of a compound that is named as a salt. Where two headings read alike, the source gives them in different places.

Columns and labels:
[1] = Pharmacokinetic test of Beagle dogs; type: in vivo; details: both sexes, dog, plasma, po, intragastric administration of solution, 2 mg, n=4, read-out: Absolute bioavailability
Protocol: Sublingual film and intragastric administration: A two-period double crossover test was adopted, and the washout period was 1 week.
The dogs were fasted for 16 hours before administration and had free access to water. After 4 hours of administration, the dogs had free access to water, and food was administered. 2 mL of blood was collected from the forelimb or hindlimb vein before administration (0 h) and 0.033 h, 0.083 h, 0.167 h, 0.25 h, 0.333 h, 0.5 h, 0.75 h, 1 h, 1.5 h, 2 h, 3 h, 4 h, 6 h after administration, and placed in heparin sodium anticoagulation tubes. The collected blood samples were centrifuged immediately (1006×g, 10 min), separated to obtain the plasma and stored at −20° C.

[2] = after oral administration; cited from earlier work

- bioavailability [1]: 11.8%
Structure (SMILES): C#CCN[C@@H]1CCc2ccccc21 [Rasagiline mesylate]
- bioavailability [2]: about 36%
